Experimental data: patent US12565473B2, “Coating composition” (priority 2020, dated 2026)

Legend:
[1] = tested on: mouse embryonic stem (mES) reporter cell lines; conditions: Bscl2 and Rtkn, absence and presence of S9
Rtkn = assay: ToxTracker genotoxicity assay, Rtkn-GFP reporter induction
Bscl2 = assay: ToxTracker genotoxicity assay, Bscl2-GFP reporter induction
[2] = with S9 rat liver extract, 3 h exposure and 24 h recovery, at 10% cytotoxicity
[3] = with S9 rat liver extract, 3 h exposure and 24 h recovery, at 25% cytotoxicity
[4] = with S9 rat liver extract, 3 h exposure and 24 h recovery, at 50% cytotoxicity
[5] = without S9 rat liver extract, 24 h exposure, at 10% cytotoxicity
[6] = without S9 rat liver extract, 24 h exposure, at 25% cytotoxicity
[7] = without S9 rat liver extract, 24 h exposure, at 50% cytotoxicity

Row | SMILES | Genotoxicity test result (overall conclusion) [1] | Rtkn GFP reporter induction level (Rtkn; [2]) | Rtkn GFP reporter induction level (Rtkn; [3]) | Rtkn GFP reporter induction level (Rtkn; [4]) | Rtkn GFP reporter induction level (Rtkn; [5]) | Rtkn GFP reporter induction level (Rtkn; [6]) | Rtkn GFP reporter induction level (Rtkn; [7]) | Bscl 2 GFP reporter induction level (Bscl2; [2]) | Bscl 2 GFP reporter induction level (Bscl2; [3]) | Bscl 2 GFP reporter induction level (Bscl2; [4]) | Bscl 2 GFP reporter induction level (Bscl2; [5]) | Bscl 2 GFP reporter induction level (Bscl2; [6]) | Bscl 2 GFP reporter induction level (Bscl2; [7])
1 | CCCCOCC(CN1CC1C)OC(=O)NCCCCCCn1c(=O)n(CCCCCCNC(=O)OC(COCCCC)CN2CC2C)c(=O)n(CCCCCCNC(=O)OC(COCCCC)CN2CC2C)c1=O (centres unmarked) [Composition 1] | non-genotoxic | 0.9 | 0.8 | 0.6 | 0.8 | 0.8 | 0.6 | 1.0 | 1.0 | 0.9 | 1.1 | 1.1 | 1.1
2 | CCCCOCC(CN1CC1C)OC(=O)NCCCCCCn1c(=O)n(CCCCCCNC(=O)OC(COCCCC)CN2CC2C)c(=O)n(CCCCCCNC(=O)OC(COCCCC)CN2CC2C)c1=O (centres unmarked) [Composition 21] | non-genotoxic | 1.1 | 1.0 | 0.9 | 1.1 | 1.0 | 0.9 | 1.0 | 0.9 | 0.7 | 1.1 | 1.1 | 0.9
